Results from ChEMBL document CHEMBL2311359, “Antiproliferative and apoptotic effects of the oxidative dimerization product of methyl caffeate on human breast cancer cells” (Bioorg Med Chem Lett, 2013).
Calls of active or inactive are those of the source. The calls are words filed in the database; no cut-off is given here.

Legend:
MCF7 [1] = assay: Growth inhibition of human MCF7 cells at 10 uM after 48 hrs; format: functional
[2] = Drug degradation in culture medium assessed as decarboxylation; format: physicochemical
MDA-MB-231 [3] = assay: Induction of apoptosis in human MDA-MB-231 cells assessed as apoptotic bubbling at 1 to 10 uM after 48 hrs by Hoechst-staining method in absence of fetal calf serum; format: functional, cell-based
MDA-MB-231 [4] = assay: Induction of cell cycle arrest in human MDA-MB-231 cells assessed as decrease in G2/M phase cells at 5 uM after 48 hrs by flow cytometric analysis relative to control; format: functional, cell-based
MDA-MB-231 [5] = assay: Induction of cell cycle arrest in human MDA-MB-231 cells assessed as subG0 phase cells at 5 uM after 48 hrs by propidium iodide-staining method in presence of fetal calf serum relative to control; format: functional
MCF7 [6] = assay: Induction of cell cycle arrest in human MCF7 cells assessed as G0/G1 phase cells at 5 uM after 48 hrs by flow cytometric analysis (reference value: 35.6%); format: functional
MDA-MB-231 [7] = assay: Induction of apoptosis in human MDA-MB-231 cells at 10 uM after 48 hrs by Hoechst-staining method in presence of fetal calf serum; format: functional
MDA-MB-231 [8] = assay: Growth inhibition of human MDA-MB-231 cells after 48 hrs in presence of fetal calf serum; format: functional, cell-based; details: MDA-MB-231, 48 h
MDA-MB-231 [9] = assay: Induction of cell cycle arrest in human MDA-MB-231 cells assessed as decrease in G0/G1 phase cells at 5 uM after 48 hrs by flow cytometric analysis relative to control; format: functional, cell-based
MCF7 [10] = assay: Induction of apoptosis in human MCF7 cells after 48 hrs by Hoechst-staining method in presence of fetal calf serum; format: functional, cell-based
MCF7 [11] = assay: Induction of cell cycle arrest in human MCF7 cells assessed as subG0 phase cells at 5 uM after 48 hrs by propidium iodide-staining method in absence of fetal calf serum relative to control; format: functional
MCF7 [12] = assay: Induction of cell cycle arrest in human MCF7 cells assessed as subG0 phase cells at 5 uM after 48 hrs by propidium iodide-staining method in presence of fetal calf serum relative to control; format: functional
MDA-MB-231 [13] = assay: Induction of cell cycle arrest in human MDA-MB-231 cells assessed as S phase cells at 5 uM after 48 hrs by flow cytometric analysis (reference value: 40.4%); format: functional
MCF7 [14] = assay: Induction of apoptosis in human MCF7 cells assessed as pyknosis at 1 to 10 uM after 48 hrs by Hoechst-staining method in absence of fetal calf serum; format: functional, cell-based
MCF7 [15] = assay: Growth inhibition of human MCF7 cells after 48 hrs in presence of fetal calf serum; format: functional, cell-based; details: MCF7, 48 h
MCF7 [16] = assay: Induction of apoptosis in human MCF7 cells assessed as apoptotic bubbling at 1 to 10 uM after 48 hrs by Hoechst-staining method in presence of fetal calf serum; format: functional, cell-based
MDA-MB-231 [17] = assay: Induction of apoptosis in human MDA-MB-231 cells assessed as apoptotic bubbling at 1 to 10 uM after 48 hrs by Hoechst-staining method in presence of fetal calf serum; format: functional, cell-based
MCF7 [18] = assay: Induction of cell cycle arrest in human MCF7 cells assessed as S/G2 phase cells at 5 uM after 48 hrs by flow cytometric analysis (reference value: 17.8%); format: functional
MCF7 [19] = assay: Induction of apoptosis in human MCF7 cells assessed as apoptotic bubbling at 1 to 10 uM after 48 hrs by Hoechst-staining method in absence of fetal calf serum; format: functional, cell-based
MCF7 [20] = assay: Induction of cell cycle arrest in human MCF7 cells assessed as S phase cells at 5 uM after 48 hrs by flow cytometric analysis (reference value: 46.6%); format: functional
MDA-MB-231 [21] = assay: Induction of apoptosis in human MDA-MB-231 cells assessed as pyknosis at 1 to 10 uM after 48 hrs by Hoechst-staining method in presence of fetal calf serum; format: functional, cell-based
MDA-MB-231 [22] = assay: Induction of apoptosis in human MDA-MB-231 cells assessed as pyknosis at 1 to 10 uM after 48 hrs by Hoechst-staining method in absence of fetal calf serum; format: functional, cell-based
MDA-MB-231 [23] = assay: Induction of apoptosis in human MDA-MB-231 cells after 48 hrs by Hoechst-staining method in absence of fetal calf serum; format: functional, cell-based
MCF7 [24] = assay: Growth inhibition of human MCF7 cells after 48 hrs in absence of fetal calf serum; format: functional, cell-based; details: MCF7, 48 h
MCF7 [25] = assay: Induction of apoptosis in human MCF7 cells at 10 uM after 48 hrs by Hoechst-staining method in presence of fetal calf serum; format: functional
MDA-MB-231 [26] = assay: Induction of apoptosis in human MDA-MB-231 cells after 48 hrs by Hoechst-staining method in presence of fetal calf serum; format: functional, cell-based
MDA-MB-231 [27] = assay: Growth inhibition of human MDA-MB-231 cells after 48 hrs in absence of fetal calf serum; format: functional, cell-based; details: MDA-MB-231, 48 h
MCF7 [28] = assay: Induction of apoptosis in human MCF7 cells after 48 hrs by Hoechst-staining method in absence of fetal calf serum; format: functional, cell-based
MCF7 [29] = assay: Induction of apoptosis in human MCF7 cells assessed as pyknosis at 1 to 10 uM after 48 hrs by Hoechst-staining method in presence of fetal calf serum; format: functional, cell-based
MDA-MB-231 [30] = assay: Induction of cell cycle arrest in human MDA-MB-231 cells assessed as subG0 phase cells at 5 uM after 48 hrs by propidium iodide-staining method in absence of fetal calf serum relative to control; format: functional
T47D = assay: Antiproliferative activity against human T47D cells after 5 days by MTT assay; format: functional, cell-based; details: 120 h
[31] = Drug degradation in culture medium assessed as dehydration; format: physicochemical

In the case of `COC(=O)C1=Cc2cc(OC)c(O)c(C)c2[C@@H](c2cc(C)c(O)c(OC)c2)[C@@H]1C(=O)OC`, the “growth inhibition (GI)” value (MCF7 [1]) is reported as “inactive”.

With `CCOC(=O)C1=Cc2cc(O)c(O)cc2[C@@H](c2ccc(O)cc2)[C@@H]1C(=O)OCC` (relative stereo) the “growth inhibition (GI)” value (MCF7 [1]) was “Active”.

For `CCOC(=O)C1=Cc2cc(O)c(O)cc2[C@@H](c2ccc(O)cc2)[C@@H]1C(=O)O` (relative stereo), the “growth inhibition (GI)” value (MCF7 [1]) was “Active”.

For `O=C(O)C1=Cc2cc(O)c(O)cc2[C@@H](c2ccc(O)cc2)[C@@H]1C(=O)O` (relative stereo), the Stability [2] was “Unstable” and the “growth inhibition (GI)” value (MCF7 [1]) was “Active”.

With `COC(=O)C1=Cc2cc(O)c(O)cc2[C@@H](c2ccc(O)c(O)c2)[C@@H]1C(=O)OC` the Activity (MDA-MB-231 [3]) was “Active”, the Activity (MDA-MB-231 [4]) was “Active” and the Activity (MDA-MB-231 [5]) was 20%. For the same compound, the Activity (MCF7 [6]) was 29.4%, the Activity (MDA-MB-231 [7]) was 25% and the IC50 (MDA-MB-231 [8]) was 5 µM. For the same compound, the Activity (MDA-MB-231 [9]) was “Active”, the Activity (MCF7 [10]) was “Dose-dependent effect” and the Activity (MCF7 [11]) was 20%. The Activity (MCF7 [12]) was 20%, the Activity (MDA-MB-231 [13]) was 56.1% and the Activity (MCF7 [14]) was “Active”. For the same compound, the IC50 (MCF7 [15]) was 1 µM, the Activity (MCF7 [16]) was “Active” and the inhibition of growth at 10 µM (MCF7 [1]; MCF7, 48 h, read-out: GI) was 82%. The Activity (MDA-MB-231 [17]) was “Active”, the Activity (MCF7 [18]) was 17% and the Activity (MCF7 [19]) was “Active”. The Activity (MCF7 [20]) was 34.7%, the Activity (MDA-MB-231 [21]) was “Active” and the Activity (MDA-MB-231 [22]) was “Active”. For the same compound, the Activity (MDA-MB-231 [23]) was “Dose-dependent effect”, the IC50 (MCF7 [24]) was 1 µM and the Activity (MCF7 [25]) was 25%. The Activity (MDA-MB-231 [26]) was “Dose-dependent effect”, the IC50 (MDA-MB-231 [27]) was 5 µM and the Activity (MCF7 [28]) was “Dose-dependent effect”. The Activity (MCF7 [29]) was “Active” and the Activity (MDA-MB-231 [30]) was 20%.

In the case of `COC(=O)C1=Cc2cc(OC)c(O)cc2[C@@H](c2ccc(O)c(OC)c2)[C@@H]1C(=O)OC`, the “growth inhibition (GI)” value (MCF7 [1]) is reported as “inactive”.

Compound `O=C(O)/C=C/c1ccc(O)c(O)c1` [CAFFEIC ACID] has an IC50 (T47D) of 0.002 µM.

With `COC(=O)C1C(O)c2cc(OC)c(O)c(OC)c2[C@@H](c2cc(OC)c(O)c(OC)c2)[C@@H]1C(=O)OC` (stereo partly drawn) the “growth inhibition (GI)” value (MCF7 [1]) was “Active” and the Stability [31] was “Unstable”.
